# Measured values as given in patent US20070118920A1, “Herbicide-resistant sunflower plants, polynucleotides encoding herbicide-resistant acetohydroxyacid synthase large subunit proteins, and methods of use” (priority 2005, published 2007).
# How the values were obtained:
# [1] = tested on: RHA266 (wild-type) sunflower plants; experiment: Field trial, tolerance to sulfonylurea herbicides (% injury); assay type: in vivo, Helianthus annuus; settings: six-leaf stage
# Excerpt: (§1) To evaluate the resistance of MUT9 sunflower plants to sulfonylurea herbicides, RHA266 (wild-type) and MUT9 sunflower plants were planted outdoors in Balcarce, Argentina during the growing season in an RCBD field trial with two replications to evaluate the tolerance of homozygous M5 MUT9 plants to the sulfonylurea herbicides tribenuron methyl (TBM) and thifensulfuron (TFS) at 1× and 2× rates applied at the six-leaf stage. Due to the lack of MUT9 seed, one herbicide was sprayed in each replication. The 1× rates for TBM and TFS are 13.15 g a.i./ha and 4.4 g a.i./ha, respectively.
# [2] = tested on: homozygous M5 MUT9 sunflower plants; experiment: as above; assay type: in vivo, Helianthus annuus; settings: six-leaf stage
# Excerpt: as §1
# [3] = rate 2X (1X: TBM 13.15 g a.i./ha, TFS 4.4 g a.i./ha)
# [4] = rate 1X (TBM 13.15 g a.i./ha, TFS 4.4 g a.i./ha)
Compound,"% Injury [1, 3] [%]","% Injury [2, 4] [%]","% Injury [2, 3] [%]","% Injury [1, 4] [%]"
"COC(=O)c1ccccc1S(=O)(=O)NC(=O)N(C)c1nc(C)nc(OC)n1 [TBM, tribenuron methyl]",45,75,75,–
"COc1nc(C)nc(NC(=O)NS(=O)(=O)c2ccsc2C(=O)O)n1 [TFS, thifensulfuron]",75,75,75,75
